Assay results reported in US12655116B2, “Substituted isophthalic acid diamides” (Bayer Aktiengesellschaft, priority 2020, dated 2026).

Assays:
AMARE [1] = assay: Pre-emergence herbicidal action against AMARE; format: in vivo, Amaranthus retroflexus
Method in brief: (§1)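 Pre-emergence soil-surface spray of formulated compound (WP or EC; 600 to 800 l/ha; 0.2% wetting agent) over seeds sown in sandy loam. After 3 weeks under greenhouse conditions, damage is estimated visually in percent against untreated plants.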

ECHCG [2] = assay: Pre-emergence herbicidal action against ECHCG; format: in vivo, Echinochloa crus-galli; conditions: 80 g/ha
Method in brief: as §1

MATIN = assay: Pre-emergence herbicidal action against MATIN; format: in vivo, Matricaria inodora
Method in brief: as §1

POLCO = assay: Pre-emergence herbicidal action against POLCO; format: in vivo, Polygonum convolvulus
Source text: Seeds of monocotyledonous and dicotyledonous weed plants and crop plants are laid out in sandy loam soil in wood-fiber pots and covered with soil. The compounds of the invention, formulated in the form of wettable powders (WP) or as emulsion concentrates (EC), are then applied to the surface of the covering soil in the form of an aqueous suspension or emulsion at a water application rate equivalent to 600 to 800 l/ha, with addition of 0.2% wetting agent. After the treatment, the pots are placed in a greenhouse and kept under good growth conditions for the trial plants. The damage to the test plants is scored visually after a test period of 3 weeks by comparison with untreated controls (herbicidal activity in percent (%): 100% activity=the plants have died, 0% activity=like control plants). […] The tables below illustrate, in an illustrative manner, the post-emergence herbicidal action of the compounds of the invention, the herbicidal activity being stated in percent.

VERPE = assay: Pre-emergence herbicidal action against VERPE; format: in vivo, Veronica persica; conditions: dosage 80 g/ha
Method in brief: as §1

VIOTR [3] = assay: Pre-emergence herbicidal action against VIOTR; format: in vivo, Viola tricolor
Method in brief: as §1

DIGSA = assay: Pre-emergence herbicidal action against DIGSA; format: in vivo, Digitaria sanguinalis
Method in brief: as §1

PHBPU = assay: Post-emergence herbicidal action against PHBPU; format: in vivo, Pharbitis purpurea
Method in brief: (§2)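 Greenhouse plants in sandy loam were sprayed at the one-leaf stage, 2 to 3 weeks after sowing, with WP or EC formulations as aqueous suspension or emulsion (600 to 800 l/ha water, 0.2% wetting agent). Visual damage was scored about 3 weeks later versus untreated controls, 0% = like control, 100% = dead.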

ABUTH [4] = assay: Pre-emergence herbicidal action against ABUTH; format: in vivo, Abutilon theophrasti; conditions: for Pre-emergence action against ABUTH (herbicidal activity in percent): dosage 20 g/ha, scored visually after 3 weeks vs untreated controls, 100% = plants have died, 0% = like control plants
Method in brief: as §1

ALOMY = assay: Pre-emergence herbicidal action against ALOMY; format: in vivo, Alopecurus myosuroides; conditions: 80 g/ha, pre-emergence, scored visually after 3 weeks vs untreated controls (100% = plants have died, 0% = like control plants)
Method in brief: as §1

AVEFA = assay: Pre-emergence herbicidal action against AVEFA; format: in vivo, Avena fatua; conditions: 80 g/ha, pre-emergence
Method in brief: as §1

SETVI = assay: Pre-emergence herbicidal action against SETVI; format: in vivo, Setaria viridis; conditions: dosage 80 g/ha
Method in brief: as §1

ABUTH [5] = assay: Post-emergence herbicidal action against ABUTH; format: in vivo, Abutilon theophrasti; conditions: visual assessment about 3 weeks after treatment vs untreated controls
Method in brief: as §2

AMARE [6] = assay: Post-emergence herbicidal action against AMARE; format: in vivo, Amaranthus retroflexus; conditions: 20 g/ha, visual assessment about 3 weeks after treatment, 100% = plants have died, 0% = like control plants
Method in brief: as §2

ECHCG [7] = assay: Post-emergence herbicidal action against ECHCG; format: in vivo, Echinochloa crus-galli; conditions: dosage 20 g/ha
Method in brief: as §2

VIOTR [8] = assay: Post-emergence herbicidal action against VIOTR; format: in vivo, Viola tricolor; conditions: 20 g/ha
Method in brief: as §2

[9] = 20 g/ha, scored visually after 3 weeks vs untreated controls, 100% = plants have died, 0% = like control plants
[10] = 80 g/ha, scored visually after 3 weeks vs untreated controls (100% = plants have died, 0% = like control plants)

Structure (SMILES) | Pre-emergence action against AMARE in % (AMARE [1]; [9]) | Pre-emergence action against AMARE in % (AMARE [1]; [10]) | Pre-emergence action against ECHCG in % (ECHCG [2]) | Pre-emergence action against MATIN in % (MATIN; dosage 80 g/ha) | Pre-emergence action against POLCO in % (POLCO; dosage 80 g/ha) | Pre-emergence action against VERPE in % (VERPE) | Pre-emergence action against VIOTR in % (VIOTR [3]; dosage 80 g/ha) | Pre-emergence action against DIGSA in % (DIGSA; dosage 80 g/ha) | Post-emergence action against PHBPU in % (PHBPU; dosage 20 g/ha) | Pre-emergence action against ABUTH (herbicidal activity) (ABUTH [4]; [10]) | Pre-emergence action against ABUTH (herbicidal activity in percent) (ABUTH [4]) | Pre-emergence action against ALOMY (herbicidal activity) (ALOMY) | Pre-emergence action against AVEFA in % (AVEFA) | Pre-emergence action against SETVI in % (SETVI) | also measured
CCn1nnnc1NC(=O)c1ccc(C(F)(F)F)c(C(=O)NCc2cccs2)c1Cl [Example 2-144] | 80% | 100% | 80% | 90% | 90% | 100% | 90% | 100% | 80% |  |  |  |  |  | Pre-emergence action against POLCO in % (POLCO; dosage 20 g/ha): 80%
CCNC(=O)c1c(C(F)(F)F)ccc(C(=O)Nc2nnc(C)o2)c1CC [Example 6-211] | 100% | 100% | 100% | 90% | 90% | 80% | 80% |  |  | 100% | 90% | 90% | 80% | 100% | Post-emergence action against ABUTH in % (ABUTH [5]; dosage 5 g/ha): 80%; Post-emergence action against ABUTH in % (ABUTH [5]; dosage 20 g/ha): 90%; Post-emergence action at 20 g/ha against AMARE in % (AMARE [6]): 90%; Post-emergence action against ECHCG in % (ECHCG [7]): 90%
CC(=O)NC(=O)c1c(C(F)(F)F)ccc(C(=O)Nc2nnnn2C)c1Cl [Example 1-337] |  |  |  |  |  |  |  |  |  |  |  |  |  |  | pest or weed control at 80 g/ha (ABUTH [4]; Abutilon theophrasti, 504 h, 80 g/ha, scored visually after 3 weeks vs untreated controls (100% = plants have died, 0% = like control plants)): 100%; pest or weed control at 20 g/ha (AMARE [1]; Amaranthus retroflexus, 504 h, 20 g/ha, scored visually after 3 weeks vs untreated controls, 100% = plants have died, 0% = like control plants): 90%; pest or weed control at 80 g/ha (AMARE [1]; Amaranthus retroflexus, 504 h, 80 g/ha, scored visually after 3 weeks vs untreated controls, 100% = plants have died, 0% = like control plants): 100%; pest or weed control at 20 g/ha (POLCO; Fallopia convolvulus, 504 h, dosage 20 g/ha): 80%; pest or weed control at 80 g/ha (POLCO; Fallopia convolvulus, 504 h, dosage 80 g/ha): 80%; pest or weed control at 80 g/ha (SETVI; Setaria viridis, 504 h): 90%; pest or weed control at 80 g/ha (VERPE; Veronica persica, 504 h): 90%; pest or weed control at 20 g/ha (VIOTR [3]; Viola tricolor, 504 h, dosage 20 g/ha): 80%; pest or weed control at 80 g/ha (VIOTR [3]; Viola tricolor, 504 h, dosage 80 g/ha): 80%; pest or weed control at 80 g/ha (DIGSA; Digitaria sanguinalis, 504 h, dosage 80 g/ha): 100%; pest or weed control at 20 g/ha (ABUTH [5]; Abutilon theophrasti, 504 h, dosage 20 g/ha): 80%; pest or weed control at 20 g/ha (VIOTR [8]; Viola tricolor, 504 h): 80%
Cn1nnnc1NC(=O)c1ccc(Br)c(C(=O)NCC2CC2)c1Cl [Example 1-180] | 100% | 100% | 100% | 100% | 100% | 80% | 100% | 100% | 90% | 100% | 90% | 100% | 80% | 90% | Pre-emergence action against MATIN in % (MATIN; dosage 20 g/ha): 90%; Pre-emergence action against VIOTR in % (VIOTR [3]; dosage 20 g/ha): 80%; Pre-emergence action against DIGSA in % (DIGSA; dosage 20 g/ha): 100%; Post-emergence action against PHBPU in % (PHBPU; dosage 5 g/ha): 90%; Post-emergence action against VIOTR in % (VIOTR [8]): 90%
